SMILES strings stand for the structures.

One test concerns the target T1, IRE1α (Homo sapiens, UniProt O75460).
T1 construct: purchased Signal Chem E31-11G
As to the kind of experiment: Biochemical assay: inhibition of RNase activity of IRE1α. The note with it: enzyme 0.325 nM, substrate 100 nM, 20 minutes. The method, then: Biochemical Assay: Inhibition of RNase Activity of IRE1α
The RNase reactions were performed in 384 well black ProxiPlate-384 Plus plates (PERKIN Elmer) using 50 mM Tris assay buffer with 0.5 mM MgCl2, 10 mM KCl, 0.03% Tween, 2 mM DTT and 1% DMSO. Test compounds were prepared on the day of assay and dispensed using D300 digital dispenser as a 10-point ½ log dilution series in duplicate, normalized to a final DMSO concentration of […]. Test compounds were pre-incubated for 30 min at room temperature with IRE1α kinase (E31-11G from Signal Chem) in 2.5 μL of assay buffer. Then 2.5 μl of assay buffer containing substrate (5′ Alexa Fluor 647-rCrArU rGrUrC rCrGrC rArGrC rGrCrArUrG-Iowa Black RQ quencher 3′) added, giving a final concentration of enzyme of 0.325 nM and of substrate of 100 nM. After 20 minutes incubation at room temperature the reactions were stopped by added 5 μL of 5M urea, incubated at room temperature for 10 minutes and fluorescence measured on a plate reader (EnVision, PerkinElmer). IC50 values calculated by fitting a sigmoidal curve to percent inhibition of control versus compound concentration.

For test [1], the system named is ARPE-19 cells stably expressing XBP1 (a.a. 1-376). As to the kind of experiment: Cellular XBP1 splicing assay (NanoLuc luciferase, thapsigargin). The conditions noted are these: thapsigargin 150 nM. It counts as cell-based. As to the method:
Cellular XBP1 Splicing Assay
ARPE-19 cells stably expressing XBP1 (a.a. 1-376) with nano-luciferase gene sequence linked so it is in frame when XBP1 is spliced, were cultured in F12 media, 10% FBS, 0.044% sodium bicarbonate, 150 μg/ml hygromycin B and seeded for assays at 5,000 cells in 384 well plates in culture media without hygromycin B and incubated at 37° C./5% CO2. After overnight incubation test compounds were added to the cell plate in a 10-point ½ log dilution series in duplicate (final DMSO concentration 0.117%). After further incubation of 30 minutes thapsigargin was added (final concentration 150 nM) and then another 4 hour incubation. A NanoLuc luciferase assay (Promega) was used according to the manufacturer's instructions to detect the luciferase and luminescence measured on a luminometer (EnVision, PerkinElmer). IC50 values calculated by fitting a sigmoidal curve to percent inhibition of control of compound concentration.

T1 sequence (O75460 468-977 limits assumed): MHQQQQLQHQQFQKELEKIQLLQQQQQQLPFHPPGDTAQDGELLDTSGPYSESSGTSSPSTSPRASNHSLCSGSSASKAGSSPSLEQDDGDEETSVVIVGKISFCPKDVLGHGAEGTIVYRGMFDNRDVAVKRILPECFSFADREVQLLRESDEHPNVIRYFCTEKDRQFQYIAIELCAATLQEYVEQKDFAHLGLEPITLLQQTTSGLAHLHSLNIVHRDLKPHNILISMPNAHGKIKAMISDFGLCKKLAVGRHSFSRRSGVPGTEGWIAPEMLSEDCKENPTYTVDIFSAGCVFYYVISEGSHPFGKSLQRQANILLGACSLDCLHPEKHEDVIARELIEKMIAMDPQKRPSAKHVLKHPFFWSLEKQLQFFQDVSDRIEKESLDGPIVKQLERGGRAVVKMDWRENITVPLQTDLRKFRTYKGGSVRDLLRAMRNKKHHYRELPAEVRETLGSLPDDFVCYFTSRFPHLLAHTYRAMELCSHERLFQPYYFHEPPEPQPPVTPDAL

With `COCCN[C@H]1CC[C@H](c2cnc(N)c3c(-c4cc(F)c(NS(=O)(=O)Cc5ccc(F)cc5)cc4F)nn(C(C)C)c32)CC1` [Compound A17, N-(4-(4-amino-1-isopropyl-7-((1r,4r)-4-((2-methoxyethyl)amino)cyclohexyl)-1H-pyrazolo[4,3-c]pyridin-3-yl)-2,5-difluorophenyl)-1-(4-fluorophenyl)methanesulfonamide], the IC50 stood at 0.9 nM on IRE1α and 12 nM in test [1] (Homo sapiens, ARPE-19, 4 h). The like results for `COCCN[C@H]1CC[C@H](c2cnc(N)c3c(-c4cc(F)c(NS(=O)(=O)c5cccc(OC)c5F)cc4F)nn(C(C)C)c32)CC1` [Compound A7, N-(4-(4-amino-1-isopropyl-7-((1r,4r)-4-((2-methoxyethyl)amino)cyclohexyl)-1H-pyrazolo[4,3-c]pyridin-3-yl)-2,5-difluorophenyl)-2-fluoro-3-methoxybenzenesulfonamide] were, in that order, 2.9 nM and 24 nM. In test [1] (4 hour), `CC(C)n1nc(-c2ccc(NS(=O)(=O)c3ccccc3Cl)c(F)c2)c2c(N)ncc(C3=CCC(NC4COC4)CC3)c21` (single isomer, unassigned) [Compound B57, N-(4-(4-amino-1-isopropyl-7-(4-(oxetan-3-ylamino)cyclohex-1-en-1-yl)-1H-pyrazolo[4,3-c]pyridin-3-yl)-2-fluorophenyl)-2-chlorobenzenesulfonamide] gave an IC50 of 20 nM. As to `CC(C)n1nc(-c2ccc(NS(=O)(=O)c3cc(Cl)ccc3F)c(F)c2)c2c(N)ncc(C3=CCC(NC4COC4)CC3)c21` (racemic) [racemic mixture of B14 & B15, N-(4-(4-amino-1-isopropyl-7-(4-(oxetan-3-ylamino)cyclohex-1-en-1-yl)-1H-pyrazolo[4,3-c]pyridin-3-yl)-2-fluorophenyl)-5-chloro-2-fluorobenzenesulfonamide], the IC50 is 60 nM on IRE1α and 3.3 nM in test [1] (Homo sapiens, ARPE-19, 4 h).

For the compound `COCCNC1CC=C(c2cnc(N)c3c(-c4ccc(NS(=O)(=O)c5ccccc5Cl)c(F)c4)nn(C(C)C)c23)CC1` (single isomer, unassigned) [Compound B53, N-(4-(4-amino-1-isopropyl-7-(4-((2-methoxyethyl)amino)cyclohex-1-en-1-yl)-1H-pyrazolo[4,3-c]pyridin-3-yl)-2-fluorophenyl)-2-chlorobenzenesulfonamide], the IC50 was 17 nM on IRE1α and 70 nM in test [1] (4 hour). On to `COCCN[C@H]1CC[C@H](c2cnc(N)c3c(-c4cc(F)c(NS(=O)(=O)c5cc(OC)ccc5Cl)cc4F)nn(C(C)C)c32)CC1` [Compound A2, N-(4-(4-amino-1-isopropyl-7-((1r,4r)-4-((2-methoxyethyl)amino)cyclohexyl)-1H-pyrazolo[4,3-c]pyridin-3-yl)-2,5-difluorophenyl)-2-chloro-5-methoxybenzenesulfonamide], for which the IC50 stood at 4.6 nM on IRE1α and 3 nM in test [1] (Homo sapiens, ARPE-19, 4 h). As to `CC(C)n1nc(-c2cc(F)c(NS(=O)(=O)c3ccccc3Cl)cc2F)c2c(N)ncc(C3=CCC(NC4COC4)CC3)c21` (single isomer, unassigned) [Compound B11, N-(4-(4-amino-1-isopropyl-7-(4-(oxetan-3-ylamino)cyclohex-1-en-1-yl)-1H-pyrazolo[4,3-c]pyridin-3-yl)-2,5-difluorophenyl)-2-chlorobenzenesulfonamide], the IC50 was 34 nM at IRE1α and 500 nM in test [1] (4 hour). On to `CCn1nc(-c2cc(F)c(NS(=O)(=O)Cc3ccccc3Cl)cc2F)c2c(N)ncc(C3=CCC(NC4COC4)CC3)c21` (centres unmarked) [Compound B32, N-(4-(4-amino-1-ethyl-7-(4-(oxetan-3-ylamino)cyclohex-1-en-1-yl)-1H-pyrazolo[4,3-c]pyridin-3-yl)-2,5-difluorophenyl)-1-(2-chlorophenyl)methanesulfonamide], for which the IC50 on IRE1α turned out to be 21 nM; in test [1] (Homo sapiens, ARPE-19, 4 h), 340 nM. Consider `CC(C)n1nc(-c2ccc(NS(=O)(=O)c3ccccc3Cl)c(F)c2)c2c(N)ncc(C3=CCC(NC4COC4)CC3)c21` (single isomer, unassigned) [Compound B56, N-(4-(4-amino-1-isopropyl-7-(4-(oxetan-3-ylamino)cyclohex-1-en-1-yl)-1H-pyrazolo[4,3-c]pyridin-3-yl)-2-fluorophenyl)-2-chlorobenzenesulfonamide], for which, in test [1] (4 hour), it took 200 nM to reach half-maximal inhibition (IC50).

Take `COCCN[C@H]1CC[C@H](c2cnc(N)c3c(-c4cc(F)c(NS(=O)(=O)c5cc(Cl)ccc5Cl)cc4F)nn(C(C)C)c32)CC1` [Compound A61, N-(4-(4-amino-1-isopropyl-7-((1r,4r)-4-((2-methoxyethyl)amino)cyclohexyl)-1H-pyrazolo[4,3-c]pyridin-3-yl)-2,5-difluorophenyl)-2,5-dichlorobenzenesulfonamide]: half-maximal inhibition in test [1] (Homo sapiens, ARPE-19, 4 h) (IC50) was put at 5 nM. On the same count and under the same terms, under `COCCN[C@H]1CC[C@H](c2cnc(N)c3c(-c4cc(F)c(NS(=O)(=O)c5cccc(F)c5)cc4F)nn(C(C)C)c32)CC1` [Compound A33, N-(4-(4-amino-1-isopropyl-7-((1r,4r)-4-((2-methoxyethyl)amino)cyclohexyl)-1H-pyrazolo[4,3-c]pyridin-3-yl)-2,5-difluorophenyl)-3-fluorobenzenesulfonamide] stands 49 nM. `Nc1ncc(C2=CCC(NC3COC3)CC2)c2c1c(-c1ccc(NS(=O)(=O)Cc3ccccc3F)c(F)c1)nn2C1CC1` (single isomer, unassigned) [Compound B21, N-(4-(4-amino-1-cyclopropyl-7-(4-(oxetan-3-ylamino)cyclohex-1-en-1-yl)-1H-pyrazolo[4,3-c]pyridin-3-yl)-2-fluorophenyl)-1-(2-fluorophenyl)methanesulfonamide] came in with an IC50 in test [1] (4 hour) of 11 nM. The compound `CCc1ccc(Cl)c(S(=O)(=O)Nc2cc(F)c(-c3nn(C(C)C)c4c3c(N)ncc4[C@H]3CC[C@H](NCCOC)CC3)cc2F)c1` [Compound A62, N-(4-(4-amino-1-isopropyl-7-((1r,4r)-4-((2-methoxyethyl)amino)cyclohexyl)-1H-pyrazolo[4,3-c]pyridin-3-yl)-2,5-difluorophenyl)-2chloro-5-ethylbenzenesulfonamide] yielded an IC50 in test [1] (Homo sapiens, ARPE-19, 4 h) of 6 nM. Same read-out and setting: under `CC(F)CN[C@H]1CC[C@H](c2cnc(N)c3c(-c4cc(F)c(NS(=O)(=O)c5ccccc5F)cc4F)nn(C(C)C)c32)CC1` (some centres unmarked) [Compound A63, N-(4-(4-amino-7-((1r,4r)-4-((2-fluoropropyl)amino)cyclohexyl)-1-isopropyl-1H-pyrazolo[4,3-c]pyridin-3-yl)-2,5-difluorophenyl)-2-fluorobenzenesulfonamide] stands 13 nM.

In test [1] (4 hour), `CCn1nc(-c2ccc(NS(=O)(=O)c3cc(Cl)ccc3F)c(F)c2)c2c(N)ncc(C3=CCC(NC4COC4)CC3)c21` (single isomer, unassigned) [Compound B39, N-(4-(4-amino-1-ethyl-7-(4-(oxetan-3-ylamino)cyclohex-1-en-1-yl)-1H-pyrazolo[4,3-c]pyridin-3-yl)-2-fluorophenyl)-5-chloro-2-fluorobenzenesulfonamide] came in with an IC50 of 220 nM. Same read-out and setting: the value for `Nc1ncc(C2=CCC(NC3COC3)CC2)c2c1c(-c1ccc(NS(=O)(=O)Cc3ccccc3F)c(F)c1)nn2C1CC1` (single isomer, unassigned) [Compound B20, N-(4-(4-amino-1-cyclopropyl-7-(4-(oxetan-3-ylamino)cyclohex-1-en-1-yl)-1H-pyrazolo[4,3-c]pyridin-3-yl)-2-fluorophenyl)-1-(2-fluorophenyl)methanesulfonamide] was 38 nM. In test [1] (Homo sapiens, ARPE-19, 4 h), `CCCOc1ccc(F)c(S(=O)(=O)Nc2cc(F)c(-c3nn(C(C)C)c4c3c(N)ncc4[C@H]3CC[C@H](NCCOC)CC3)cc2F)c1` [Compound A60, N-(4-(4-amino-1-isopropyl-7-((1r,4r)-4-((2-methoxyethyl)amino)cyclohexyl)-1H-pyrazolo[4,3-c]pyridin-3-yl)-2,5-difluorophenyl)-2-fluoro-5-propoxybenzenesulfonamide] had an IC50 of 16 nM. On the same count and under the same terms, the value for `COCCN[C@H]1CC[C@H](c2cnc(N)c3c(-c4cc(F)c(NS(=O)(=O)c5cc(OC(F)(F)F)ccc5F)cc4F)nn(C(C)C)c32)CC1` [Compound A59, N-(4-(4-amino-1-isopropyl-7-((1r,4r)-4-((2-methoxyethyl)amino)cyclohexyl)-1H-pyrazolo[4,3-c]pyridin-3-yl)-2,5-difluorophenyl)-2-fluoro-5-(trifluoromethoxy)benzenesulfonamide] was 44 nM. Take `CCn1nc(-c2ccc(NS(=O)(=O)Cc3ccccc3Cl)cc2)c2c(N)ncc(C3=CCC(NC4COC4)CC3)c21` (single isomer, unassigned) [Compound B25, N-(4-(4-amino-1-ethyl-7-(4-(oxetan-3-ylamino)cyclohex-1-en-1-yl)-1H-pyrazolo[4,3-c]pyridin-3-yl)phenyl)-1-(2-chlorophenyl)methanesulfonamide]: inhibition in test [1] (4 hour) was half-maximal at 170 nM (IC50).

Values taken from patent US20220153734A1, “Pyrazolopyridine Compounds For IRE1 Inhibition” (Optikira, LLC, priority 2019, published 2022).
